In US20080044498A1, “Therapeutic or prophylactic agent, and method of treating or preventing a disease” (priority 2002, published 2008):
“Also recorded” adds a separate entry of the source.

Columns and labels:
Format in all cases: cell-based
glucose transporter = experiment: Inhibition by cytochalasin B of 2-deoxyglucose uptake into matured adipocytes; conditions: FIG. 13
Experimental: The influence of cytochalasin B on 2-deoxyglucose uptake into matured adipocytes during the stimulation of the sample into the cells was tested in the same manner as in the method described in Example 5 on whether the enhancing action for glucose uptake of the ethanol extract fraction from root portions of Angelica keiskei koidz. shown in Example 16 is inhibited by cytochalasin B, which is an inhibitor of glucose transporter.
Specifically, as a sample, a group with addition of a dimethyl sulfoxide solution of the ethanol extract fraction from root portions of Angelica keiskei koidz. so as to have a final concentration of 0.1% was set. Here, there were set a group without addition of the sample as a negative control, and a group with addition of insulin so as to have a final concentration of 1 μg/mL as a positive control. Furthermore, a group with addition of cytochalasin B (manufactured by nacalai tesque, 10435-81) so as to have a final concentration of 40 μM was set concurrently to the timing of the setting of the group with addition of insulin in each group. Thereafter, the amount of 2-deoxy-[1,2-^3H(N)]-glucose uptake into the cells was determined in the same manner.

[1] = system: Preadipocyte cell line 3T3-L1; experiment: Induction of adipocyte differentiation, amount of biosynthesized triglyceride; conditions: positive control, 4 μl of aqueous solution containing 5 mg/mL insulin
Experimental: The induction of an adipocyte differentiation was carried out by partially modifying the above-mentioned method of Rubin C. S. et al. Preadipocyte cell line 3T3-L1 (ATCC CCL-92.1) was suspended in a 10% bovine fetal serum (manufactured by GIBCO)-containing Dulbecco's modified Eagle's medium (manufactured by Sigma, D6046) containing 200 μM ascorbic acid (hereinafter referred to as A-D-MEM) so as to have a concentration of 4×10^3 cells/mL, and the suspension was put in each well of a 12-well microtiter plate in an amount of 2 mL per well. The cells were cultured at 37° C. for 7 days in the presence of 5% carbon dioxide gas. The medium was exchanged with the same medium on the second day and the fourth day. […] Here, there were set a group with addition of 4 μl of an aqueous solution containing 5 mg/mL insulin (manufactured by TAKARA BIO INC.) as a positive control, and a group with addition of water as a negative control. […] The amount of biosynthesized triglyceride in the adipocytes was determined as an index of induction of differentiation into matured adipocytes, and as evaluation of insulin-mimetic action. […] The precipitate was dissolved in 100 μl of isopropanol, and thereafter the amount of triglyceride contained in 10 μl of the resulting solution was determined with Triglyceride G-Test (manufactured by Wako Pure Chemical Industries, Ltd., code 276-69801). […]

[2] = system: matured adipocytes (3T3-L1 cells); experiment: Enhancing action for glucose uptake (2-deoxyglucose uptake) into matured adipocytes; conditions: positive control, insulin final concentration 1 μg/mL
[3] = system: matured adipocytes (3T3-L1 cells); experiment: Synergistic enhancing action of glucose uptake with low concentration-insulin in matured adipocytes; conditions: insulin alone, final concentration 0.001 μg/mL; FIG. 14
Experimental: As evaluation of the synergistic enhancing action of glucose uptake by the ethanol extract fraction from root portions of Angelica keiskei koidz. prepared in Example 14 and a low concentration-insulin, the amount of 2-deoxyglucose uptake into matured adipocytes during the stimulation of the sample in the adipocytes was determined partly in the same manner as in the method described in Example 5.
The matured adipocytes were prepared in the same manner as in the method described in item (1) of Example 5.
After the termination of the culture, the medium was removed, and the cells were washed twice with 0.1% (w/v) bovine serum albumin (manufactured by Sigma, A8022)-containing Dulbecco's modified Eagle's medium. Thereafter, 1 mL of the same medium containing a dimethyl sulfoxide solution of the ethanol extract fraction from root portions of Angelica keiskei koidz. having a final concentration of 0.02% was added thereto. The cells were cultured overnight at 37° C. in the presence of 5% carbon dioxide gas. A group without containing the ethanol extract fraction from root portions of Angelica keiskei koidz. was set as a negative control. […] Thereafter, the amount of 2-deoxy-[1,2-^3H(N)]-glucose uptake into the cells was determined in the same manner as in the method described in item (2) of Example 5.

[4] = system: matured adipocytes (3T3-L1 cells); experiment: Glucose uptake by insulin stimulation into adipocytes induced to be differentiated by the sample; conditions: adipocytes differentiated by insulin (4 μl of 5 mg/mL); insulin stimulation 1 μg/mL; FIG. 15
Source text: Adipocytes which were induced to be differentiated by the ethanol extract fraction from Angelica keiskei koidz. prepared in Example 14 were obtained, and thereafter it was confirmed whether the glucose uptake into the cells was enhanced by insulin stimulation.
Specifically, as a sample, there was set a group with addition of a dimethyl sulfoxide solution of the ethanol extract fraction from root portions of Angelica keiskei koidz. to have a final concentration of 0.05%. A group with addition of 4 μl of an aqueous solution containing 5 mg/mL insulin (manufactured by TAKARA BIO INC.) was set as a positive control. […]
Next, the amount of 2-deoxyglucose uptake into the resulting matured adipocytes during the insulin stimulation in the adipocytes was determined in the same manner as in the method described in Example 5.
Specifically, a group without addition of insulin or a group with addition of insulin so as to have a final concentration of 1 μg/mL was set in each of the matured adipocytes. Thereafter, the amount of 2-deoxy-[1,2-^3H(N)]-glucose uptake into the cells was determined in the same manner.

| Compound | inhibition of 2-deoxy-[1,2-3H(N)]-glucose uptake (glucose transporter; cytochalasin B final concentration 40 μM added concurrently with each group) | induction of triglyceride biosynthesis (adipocyte differentiation) [1] | enhancement of 2-deoxy[1,2-3H(N)]-glucose uptake [2] | 2-deoxy-[1,2-3H(N)]-glucose uptake with concurrent cytochalasin B (glucose transporter; insulin 1 μg/mL plus cytochalasin B 40 μM) | enhancement of 2-deoxy-[1,2-3H(N)]-glucose uptake [3] | enhancement of 2-deoxy[1,2-3H(N)]-glucose uptake by insulin stimulation [4] |
| --- | --- | --- | --- | --- | --- | --- |
| C=C1[C@@H](C)[C@H]2[C@H](Cc3ccccc3)NC(=O)[C@]23OC(=O)/C=C/[C@H](O)CCC[C@@H](C)C/C=C/[C@H]3[C@@H]1O [cytochalasin B] | almost completely inhibited |  |  |  |  |  |
| insulin |  | induction of triglyceride biosynthesis could be confirmed | enhancement of 2-deoxy[1,2-^3H(N)]-glucose uptake was found; also recorded: enhancement of 2-deoxy-[1,2-^3H(N)]-glucose uptake was found | almost completely inhibited | enhancement of 2-deoxy-[1,2-^3H(N)]-glucose uptake was found | enhancement of 2-deoxy[1,2-^3H(N)]-glucose uptake was found by insulin stimulation |
